How the values were obtained:
chickweed [1] = assay: Test Example 5: herbicidal effect by foliage application, plastic box (Table 20, symbol P); type: in vivo, common chickweed (Stellaria media); settings: foliage application, AAH 320 g/ha, three weeks after application
Summary of the method: (§1)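 Plants sown in sterilized diluvial soil and grown 14 days in a greenhouse at 25° C to 30° C, then sprayed on the foliage with the compound's emulsion diluted in water to a predetermined herbicide amount. Injury to weeds and crops scored three weeks after application on a visual rating scale.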

Italian ryegrass [2] = assay: Test Example 5: herbicidal effect by foliage application, plastic box (Table 20, symbol K); type: in vivo, Italian ryegrass (Lolium multiflorum); settings: foliage application, AAH 320 g/ha, three weeks after application
Summary of the method: as §1

southern crabgrass [3] = assay: Test Example 4: herbicidal effect by soil treatment (Table 19, symbol F); type: in vivo, southern crabgrass (Digitaria ciliaris); settings: AAH 320 g/ha
Summary of the method: (§2)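 Three weeks of greenhouse growth at 25° C. to 30° C. followed a uniform surface spray of water-diluted emulsion at a predetermined herbicide amount. Seeds had been sown beforehand under about 1.5 cm of sterilized diluvial soil. Grading followed criteria set out in an earlier test.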

redroot pigweed [4] = assay: Test Example 5: herbicidal effect by foliage application, plastic box (Table 20, symbol N); type: in vivo, redroot pigweed (Amaranthus retroflexus); settings: foliage application, AAH 320 g/ha, three weeks after application
Summary of the method: as §1

lambsquarters [5] = assay: Test Example 5: herbicidal effect by foliage application, plastic box (Table 20, symbol O); type: in vivo, lambsquarters (Chenopodium album); settings: foliage application, AAH 320 g/ha, three weeks after application
Summary of the method: as §1

rice flat sedge = assay: Test Example 3: herbicidal effect by foliage application, Wagner pot (Table 18, symbol E); type: in vivo, rice flat sedge (Cyperus iria); settings: 320 g/ha
Summary of the method: (§3)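 Plants were sown in alluvial soil held under 0.1–0.5 cm standing water and grown 14 days in a greenhouse at 25–30 °C. An emulsifiable formulation, water-diluted to the set dose, was then sprayed onto the foliage, and effects were scored three weeks later using previously defined criteria.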

persian speedwell [6] = assay: Test Example 5: herbicidal effect by foliage application, plastic box (Table 20, symbol R); type: in vivo, Persian speedwell (Veronica persica); settings: foliage application, AAH 320 g/ha, three weeks after application
Summary of the method: as §1

velvetleaf [7] = assay: Test Example 5: herbicidal effect by foliage application, plastic box (Table 20, symbol M); type: in vivo, velvetleaf (Abutilon theophrasti); settings: foliage application, AAH 320 g/ha, three weeks after application
Summary of the method: as §1

persian speedwell [8] = assay: Test Example 4: herbicidal effect by soil treatment (Table 19, symbol R); type: in vivo, Persian speedwell (Veronica persica); settings: AAH 320 g/ha
Summary of the method: as §2

velvetleaf [9] = assay: Test Example 4: herbicidal effect by soil treatment (Table 19, symbol M); type: in vivo, velvetleaf (Abutilon theophrasti); settings: AAH 320 g/ha
Summary of the method: as §2

lambsquarters [10] = assay: Test Example 4: herbicidal effect by soil treatment (Table 19, symbol O); type: in vivo, lambsquarters (Chenopodium album); settings: AAH 320 g/ha
Summary of the method: as §2

green foxtail [11] = assay: Test Example 5: herbicidal effect by foliage application, plastic box (Table 20, symbol G); type: in vivo, green foxtail (Setaria viridis); settings: foliage application, AAH 320 g/ha, three weeks after application
Summary of the method: as §1

windgrass = assay: Test Example 5: herbicidal effect by foliage application, plastic box (Table 20, symbol L); type: in vivo, windgrass (Apera spica-venti); settings: foliage application, AAH 320 g/ha, three weeks after application
Summary of the method: as §1

Chinese sprangletop = assay: Test Example 3: herbicidal effect by foliage application, Wagner pot (Table 18, symbol D); type: in vivo, chinese sprangletop (Leptochloa chinensis); settings: 320 g/ha
Summary of the method: as §3

Italian ryegrass [12] = assay: Test Example 4: herbicidal effect by soil treatment (Table 19, symbol K); type: in vivo, Italian ryegrass (Lolium multiflorum); settings: AAH 320 g/ha
Summary of the method: as §2

southern crabgrass [13] = assay: Test Example 5: herbicidal effect by foliage application, plastic box (Table 20, symbol F); type: in vivo, southern crabgrass (Digitaria ciliaris); settings: foliage application, AAH 320 g/ha, three weeks after application
Summary of the method: as §1

chickweed [14] = assay: Test Example 4: herbicidal effect by soil treatment (Table 19, symbol P); type: in vivo, common chickweed (Stellaria media); settings: AAH 320 g/ha
Summary of the method: as §2

blackgrass [15] = assay: Test Example 4: herbicidal effect by soil treatment (Table 19, symbol J); type: in vivo, blackgrass (Alopecurus myosuroides); settings: AAH 320 g/ha
Summary of the method: as §2

false cleavers = assay: Test Example 4: herbicidal effect by soil treatment (Table 19, symbol Q); type: in vivo, false cleavers (Galium spurium); settings: AAH 320 g/ha
Summary of the method: as §2

green foxtail [16] = assay: Test Example 4: herbicidal effect by soil treatment (Table 19, symbol G); type: in vivo, green foxtail (Setaria viridis); settings: AAH 320 g/ha
Summary of the method: as §2

blackgrass [17] = assay: Test Example 5: herbicidal effect by foliage application, plastic box (Table 20, symbol J); type: in vivo, blackgrass (Alopecurus myosuroides); settings: foliage application, AAH 320 g/ha, three weeks after application
Summary of the method: as §1

barnyard grass [18] = assay: Test Example 4: herbicidal effect by soil treatment (Table 19, symbol H); type: in vivo, barnyard grass (Echinochloa crus-galli); settings: AAH 320 g/ha
Summary of the method: as §2

wild oat [19] = assay: Test Example 4: herbicidal effect by soil treatment (Table 19, symbol I); type: in vivo, wild oat (Avena fatua); settings: AAH 320 g/ha
Summary of the method: as §2

barnyard grass [20] = assay: Test Example 3: herbicidal effect by foliage application, Wagner pot (Table 18, symbol H); type: in vivo, barnyard grass (Echinochloa crus-galli); settings: 320 g/ha
Summary of the method: as §3

wild oat [21] = assay: Test Example 5: herbicidal effect by foliage application, plastic box (Table 20, symbol I); type: in vivo, wild oat (Avena fatua); settings: foliage application, AAH 320 g/ha, three weeks after application
Summary of the method: as §1

barnyard grass [22] = assay: Test Example 5: herbicidal effect by foliage application, plastic box (Table 20, symbol H); type: in vivo, barnyard grass (Echinochloa crus-galli); settings: foliage application, AAH 320 g/ha, three weeks after application
Summary of the method: as §1

redroot pigweed [23] = assay: Test Example 4: herbicidal effect by soil treatment (Table 19, symbol N); type: in vivo, redroot pigweed (Amaranthus retroflexus); settings: AAH 320 g/ha
Summary of the method: as §2

## COc1nn(C)c(=O)c(-c2c(-c3ccc(F)c(C)c3)sc3ccccc23)c1O [1-174]
Chickweed [1]
  P: chickweed, herbicidal effect: 5 (Herbicidal rate of 90% or more (almost completely withered))
Italian ryegrass [2]
  K: Italian ryegrass, herbicidal effect: 1 (Herbicidal rate of 5% or more and less than 20%)
Southern crabgrass [3]
  F: southern crabgrass, herbicidal effect rating: 0 (Herbicidal rate of 5% or less (almost no effect))
Redroot pigweed [4]
  N: redroot pigweed, herbicidal effect: 0 (Herbicidal rate of 5% or less (almost no effect))
Lambsquarters [5]
  O: lambsquarters, herbicidal effect: 2 (Herbicidal rate of 20% or more and less than 40%)
Rice flat sedge
  herbicidal effect on E (rice flat sedge), rating 0-5: 3 (Herbicidal rate of 40% or more and less than 70%)
Persian speedwell [6]
  R: persian speedwell, herbicidal effect: 4 (Herbicidal rate of 70% or more and less than 90%)
Velvetleaf [7]
  M: velvetleaf, herbicidal effect: 4 (Herbicidal rate of 70% or more and less than 90%)
Persian speedwell [8]
  R: persian speedwell, herbicidal effect rating: 4 (Herbicidal rate of 70% or more and less than 90%)
Velvetleaf [9]
  M: velvetleaf, herbicidal effect rating: 0 (Herbicidal rate of 5% or less (almost no effect))
Lambsquarters [10]
  O: lambsquarters, herbicidal effect rating: 0 (Herbicidal rate of 5% or less (almost no effect))
Green foxtail [11]
  G: green foxtail, herbicidal effect: 2 (Herbicidal rate of 20% or more and less than 40%)
windgrass
  L: windgrass, herbicidal effect: 0 (Herbicidal rate of 5% or less (almost no effect))
Chinese sprangletop
  herbicidal effect on D (Chinese sprangletop), rating 0-5: 0 (Herbicidal rate of 5% or less (almost no effect))
Italian ryegrass [12]
  K: Italian ryegrass, herbicidal effect rating: 0 (Herbicidal rate of 5% or less (almost no effect))
Southern crabgrass [13]
  F: southern crabgrass, herbicidal effect: 0 (Herbicidal rate of 5% or less (almost no effect))
Chickweed [14]
  P: chickweed, herbicidal effect rating: 5 (Herbicidal rate of 90% or more (almost completely withered))
Blackgrass [15]
  J: blackgrass, herbicidal effect rating: 0 (Herbicidal rate of 5% or less (almost no effect))
False cleavers
  Q: false cleavers, herbicidal effect rating: 0 (Herbicidal rate of 5% or less (almost no effect))
Green foxtail [16]
  G: green foxtail, herbicidal effect rating: 0 (Herbicidal rate of 5% or less (almost no effect))
Blackgrass [17]
  J: blackgrass, herbicidal effect: 0 (Herbicidal rate of 5% or less (almost no effect))
Barnyard grass [18]
  H: barnyard grass, herbicidal effect rating: 0 (Herbicidal rate of 5% or less (almost no effect))
Wild oat [19]
  I: wild oat, herbicidal effect rating: 0 (Herbicidal rate of 5% or less (almost no effect))
Barnyard grass [20]
  herbicidal effect on H (barnyard grass), rating 0-5: 1 (Herbicidal rate of 5% or more and less than 20%)
Wild oat [21]
  I: wild oat, herbicidal effect: 0 (Herbicidal rate of 5% or less (almost no effect))
Barnyard grass [22]
  H: barnyard grass, herbicidal effect: 0 (Herbicidal rate of 5% or less (almost no effect))
Redroot pigweed [23]
  N: redroot pigweed, herbicidal effect rating: 0 (Herbicidal rate of 5% or less (almost no effect))
